The results in this text go back to patent publication US9862713B2, “Substituted bicyclic heteroaryl compounds as RXR agonists” (CONNEXIOS LIFE SCIENCES PVT. LTD., priority 2014, dated 2018).

For one assay, the system named is hRXR α, β, or γ. Nature of the assay: Transactivation assay (RARE-Luc dual luciferase reporter in HEK-293 cells), activity relative to LG268. It is filed as cell-based, human. The note with it: 24 h, luciferase activity expressed relative to LG268. The gist of the method: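 HEK-293 cells co-transfected with hRXR α, β or γ expression vector, RARE-firefly luciferase and renilla luciferase; 24 h later treated with agonist (100 nM, 300 nM, 1 uM) for 24 h. Firefly signal normalized to renilla; activity expressed relative to the RXR agonist LG268.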
(Reporter assays use an easily measured gene product as a stand-in for the process of interest.)

Assay [1] concerns mouse neuronal cells (N2A cells). Nature of the assay: Cholesterol-treated neuronal cells (N2A), in vitro data for Alzheimer's disease. The note with it: 320 uM cholesterol. It is filed as cell-based. The method, then:
In order to study the impact of Compound 40 on Alzheimer's Disease, cultured mouse neuronal cells (N2A cells) were treated with 320 uM cholesterol alone or with test molecule for 24 h. Cholesterol was removed and treatment is continued for 24 h. Cholesterol content in the cells was measured by biochemical methods, normalized to total protein. For gene expression studies, cells were treated with 320 uM cholesterol alone or with test molecule for 48 h. RNA was made and later converted to cDNA and the gene expression was measured. […] These cellular events lead to reduced plaque formation and improvement in the health of neuronal cells.

In assay [2] the test system is MIA PaCa-2 cells. Briefly: ROS level (DCFH-DA probe) in MIA PaCa-2 cells. As to conditions: 4 days treatment. It is filed as cell-based. The method, then: To assess the impact of Compound 40 on ROS level, the cells were exposed to ROS indicator probe (DCFH-DA) for 1 h. ROS induced increase in DCF fluorescence was estimated at 485 nm excitation and 528 nm emission. ROS levels were normalized to cellular DNA levels which were measured by using bis-benzamide fluorescence at 360 nm excitation and 460 nm emission. The ROS levels are represented at % of control. […] Over-expression of RXRa further augmented the ROS levels.

For assay [3], the system named is MIA PaCa-2 cells. Briefly: Caspase-3 activity (Ac-DEVD-R110 cleavage) in MIA PaCa-2 cells. It is filed as cell-based. The procedure: Caspase-3 activity was measured using its ability to cleave its substrate (Ac-DEVD-R110). Increased Caspase-3 activity would lead to higher release of fluorescent R110 which was measured at 485 nm excitation and 530 nm emission. Activity of caspase-3 (as nano-moles of R110 released) was normalized to total cellular protein. […] Cell death was measured by increased levels of DNA fragments as per manufacturer's protocol (Roche) and was normalized to total cellular DNA. Data are represented as % of control.

In assay [4] the test system is MCF7 breast cancer cell line. Briefly: MCF7 breast cancer cell line: growth, BrdU incorporation, ROS, DNA fragmentation. Format: cell-based. (In general: Incorporation of labelled thymidine or its analogues reports DNA synthesis.)
A further assay concerns db/db mice. Briefly: Effect of RXR agonist on db/db mice. As to conditions: 2.5, 5, 10 and 15 mg/kg, BID, po. It is filed as in vivo. The method, then:
The male db/db and lean mice were procured from Jackson Laboratory, US laboratories, acclimatized for a week, were fed a standard laboratory diet. The lean control and the db/db mice were 8 weeks old at the start of the study and were randomized to either vehicle or drug (Compound 40, 2.5, 5, 10 and 15 mg/kg, BID, po) treatment groups by body weight, fed glucose and glucose AUC during an oral glucose tolerance test. The treatment was continued for 8 weeks. Body weight, fasting and fed glucose and fast triglycerides (tail snip) were monitored weekly. At the end of week 8 of the treatment, glucose and insulin HbAlc levels were followed at different time intervals. Blood samples collected from tail nipping method were subjected at the end of week 7 of treatment period measured for HbAlc levels by DCA vantage (SIEMENS).
Assessment of 24 h glucose profile: Fed state blood samples were collected by tail nipping method and measured for glucose levels at every 2 h time intervals up to 8 h and then followed by 4 h intervals at the end of week 7 of treatment.

The subject of the next assay is male Syrian Hamsters. Briefly: High cholesterol diet induced hyperlipidaemia in hamsters. It is filed as in vivo. The note with it: 10 mg/kg b.wt, 8-12 weeks. The method, then:
Eight to ten week old male Syrian Hamsters were housed in polypropylene cages provided with sterile paddy husk as bedding material. The animals were maintained at temperature 22±3° C., relative humidity 50-70%, 15-18 air cycle changes with 12 h dark and light cycle. The animals were provided with rodent feed (ad libitum) supplied by harlan laboratories to normal control animals and treatment groups were fed with High Cholesterol diet, prepared in-house by mixing 11.5% coconut oil, 11.5% corn oil, 0.5% cholesterol, and 0.25% deoxycholate in chow diet. Bisleri water (ad libitum) was provided. The animals were randomized based on body weight and divided into control and treatment groups. Compound 40 was administered, at a dose of 10 mg/kg b.wt, for a period of 8-12 weeks to the treatment group. Daily feed consumption, weekly body weight, total cholesterol and triglyceride levels were estimated.

As to `CC1(C)CCC(C)(C)c2sc(N(CC3CC3)c3ccc(C(=O)O)cn3)nc21` [Compound 40, 6-[(Cyclopropylmethyl) (4,4,7,7-tetramethyl-4,5,6,7-tetrahydro-1,3-benzothiazol-2-yl)amino]pyridine-3-carboxylic acid], in the assay on hRXR α, β, or γ (compound at 300 nM), the “Activity at 300 nM” value is “***** (>0.6)”. Also, the “Activity at 1 µM” value in the assay with hRXR α, β, or γ (compound at 1 µM) was “**** (>0.9 to <1)”. For the same compound, in assay [1], the “apoptosis (Caspase activity)” value is given as “decreased apoptosis”, the “cholesterol accumulation (cholesterol content in the cells)” value is recorded as “reduced cholesterol accumulation” and the “oxidative stress (ROS levels)” value is “reduced oxidative stress”. Also, the “cholesterol efflux (ABCA1 and ABCG1 expression)” value in assay [1] (48 h) is on record as “increased the cholesterol efflux”. In the assay on MIA PaCa-2 cells [2], the ROS levels entry was “significant augmentation of stress levels”. In the assay with MIA PaCa-2 cells [3], the Caspase-3 activity result is listed as “significantly increased”. Also, in assay [4] (MCF7), the BrdU incorporation result is recorded as “significantly reduced”, the “apoptosis (DNA fragmentation)” value was “increased levels of apoptosis” and the “cellular stress (ROS levels)” value is “significant increase in cellular stress”. Also, in assay [4] (MCF7, 3 uM), the cell growth entry is reported as “reduced cell growth”. In the assay with db/db mice (8 weeks), the “post-prandial blood glucose levels” value is reported as “significantly reduced post-prandial blood glucose levels”. In the assay with db/db mice (end of week 7), the HbAlc levels result was “steep and dose dependent reduction”; the “glucose excursion during the prandial phase (24 h glucose profile)” value is “significantly reduced glucose excursion”. In the assay with male Syrian Hamsters, the LDL-c result is listed as “significant reduction”, the Non-HDL cholesterol result was “significant reduction” and the total cholesterol entry is reported as “significant reduction”.
